{"source": "patent US20250295701A1", "about": "“Kit for Induction of Continuous Expansion of Hepatoblast Organoids and/or Hepatocyte Organoids Under 3D Suspension Conditions and Use Thereof” (South China University of Technology, priority 2022, published 2025)", "key": {"hepatoblasts": {"tested_on": "hepatoblasts", "test": "Step-down removal of factors from the HB organoid expansion medium", "type": "cell-based, human", "settings": "for Ki67 expression level after removing the factor: flow cytometry, compared with complete medium group", "description": "Based on the related-signaling pathways affecting the regeneration/proliferation/expansion of hepatoblasts in vivo and in vitro, the development of the medium formula for HB organoid expansion was to initially select small molecules or cytokines corresponding to the pathways to mimic the process of hepatic progenitor regeneration, and finally the combination of small molecules with cytokines had been established. Through comprehensive investigation on a large amount of literature, it had been shown that Wnt, TGFβ, cAMP, Activin, EGF and HGF pathways were related to the regeneration of hepatoblasts. […] Afterwards, the step-down method through removing factors one by one from the combination had been used to verify which small molecule/cytokine was essential for the long-term culture of hepatoblasts. […] Finally, flow cytometry had been used to detect the expression levels of cell proliferation marker Ki67. […] Therefore, finally the expansion medium of HB organoid was determined as the fifth medium in Example 1: IMDM medium supplemented with 10 % w/w FBS, 1% w/w ITS, 1% w/w NEAA, 1% w/w GlutaMAX, 10 mM Nicotinamide, 5 μM CHIR99021, 10 µM SB431542, 10 μM FSK, 20 ng/mL FGF-4, 20 ng/mL BMP4, 20 ng/mL EGF and 5% Matrigel."}, "[1]": {"tested_on": "polarized hepatocyte organoids", "test": "Cholestasis detection by CDFDA staining", "type": "cell-based, human", "settings": "drug at its IC25 value for 48 hours", "experimental": "In addition, CDFDA staining was used to test the appearance of the cholestasis in polarized hepatocyte organoids which are treated by these drugs at IC25 values of each drug for 48 hours, and then the occurrence of the cholestasis after drug treatment was evaluated by whether fluorescent CDFDA product is transported into bile canaliculi through apical protein."}, "[2]": {"tested_on": "polarized hepatocyte organoids", "test": "Drug toxicology analysis (cell viability, IC50) in polarized hepatocyte organoids", "type": "cell-based, human", "settings": "48 hours after drug treatment, cell viability detection kit", "experimental": "Polarized hepatocyte organoids (could be used in drug screening models 6 days after the maturation) after the maturation from the differentiation were collected, and distributed into ultra-low attachment 96-well culture plates using the pipette, about 10-20 organoids were seeded in each well, then different drugs could be employed for toxicology analysis. In this Example, toxicology analysis was performed on 8 kinds of drugs (Mannitol, Troglitazone, Chlorpromazine, Diclofenac, Cyclosporine A, Nefazodone, Tolcapone, Bosentan) to detect the ability of polarized hepatocyte organoids to predict the toxicity of each drug during drug screening/toxicology analysis. During the toxicology analysis, at least 7 different concentrations were selected for each drug, and wells in triplicate were performed for each concentration. Forty-eight hours after drug treatment, cell viabilities are detected using cell viability detection kit and IC50 curves were drawn. Finally, IC50 value of each drug for each cell type was calculated. In addition to polarized hepatocyte organoids, non-polarized hepatocyte spheroids and HepG2 cells (hepatoma cell lines, commonly used for hepatocyte drug screening) spheroids were also simultaneously used for drug toxicology analysis."}, "hepatocyte organoids": {"tested_on": "hepatocyte organoids", "test": "Hepatocyte lipid accumulation model induced with oleic acid", "type": "cell-based, human", "experimental": "After mature hepatocyte organoids were differentiated from long-term cultured HB organoids (the lipid accumulation model could be developed 6 days after the differentiation), oleic acid (OA) was used with the concentrations at 200 and 800 μM to induce the lipid accumulation model. […] Next spermidine (SPD), a drug that alleviates lipid accumulation in hepatocytes, was used to conduct the rescue. SPD was added into the medium at 200 μM at the same time during the treatment with OA. […] The above results lay the foundation for the subsequent applications of polarized hepatocyte organoids in the development of drugs related to hepatocyte lipid accumulation and the treatment of lipid accumulation."}, "[3]": {"tested_on": "phase I metabolizing enzymes"}, "[4]": {"settings": "factor removed from complete medium"}}, "data": [{"compound": "Cc1c[nH]c(-c2cnc(NCCNc3ccc(C#N)cn3)nc2-c2ccc(Cl)cc2Cl)n1", "note": "[CHIR99021]", "values": [{"measurement": "efficiency of cloning formation after removing the factor", "setting": "hepatoblasts; [4]", "result": "significantly reduced"}, {"measurement": "morphological changes of cell spheroids after removing the factor", "setting": "hepatoblasts; [4]", "result": "unable to form hollow organoid-like structures"}]}, {"compound": "O=C(O)Cc1ccccc1Nc1c(Cl)cccc1Cl", "note": "[Dicofenac, Diclofenac]", "values": [{"measurement": "occurrence of the cholestasis", "setting": "[1]", "result": "do not induce the cholestasis"}]}, {"compound": "OC[C@@H](O)[C@@H](O)[C@H](O)[C@H](O)CO", "note": "[Mannitol]", "values": [{"measurement": "toxicity to hepatocytes", "setting": "[2]", "result": "no toxic"}, {"measurement": "occurrence of the cholestasis", "setting": "[1]", "result": "do not induce the cholestasis"}]}, {"compound": "CCCCCCCC/C=C\\CCCCCCCC(=O)O", "note": "[OA, oleic acid]", "values": [{"measurement": "levels of intracellular ROS", "setting": "hepatocyte organoids; OA 200 and 800 μM, flow cytometry", "result": "increased"}, {"measurement": "levels of intracellular triglyceride", "setting": "hepatocyte organoids; OA 200 and 800 μM, kit", "result": "increase"}, {"measurement": "content of lipid droplets", "setting": "hepatocyte organoids; OA 200 and 800 μM, two days, oil red staining", "result": "gradually increased"}, {"measurement": "expression levels of lipid accumulation related genes FASN and PLIN2", "setting": "hepatocyte organoids; after OA modeling, qPCR", "result": "significantly increased"}]}, {"compound": "NC(=O)c1ccc(-c2nc(-c3ccc4c(c3)OCO4)c(-c3ccccn3)[nH]2)cc1", "note": "[SB431542]", "values": [{"measurement": "efficiency of cloning formation after removing the factor", "setting": "hepatoblasts; [4]", "result": "significantly reduced"}]}, {"compound": "NCCCCNCCCN", "note": "[SPD, spermidine]", "values": [{"measurement": "relative number of lipid droplets", "setting": "hepatocyte organoids; SPD 200 μM added with OA, two days", "result": "significantly reduced"}, {"measurement": "expression levels of genes related to lipid accumulation", "setting": "hepatocyte organoids; SPD 200 μM added with OA, two days, qPCR", "result": "decreased"}]}, {"compound": "Cc1ccc(C(=O)c2cc(O)c(O)c([N+](=O)[O-])c2)cc1", "note": "[Tolcapone]", "values": [{"measurement": "occurrence of the cholestasis", "setting": "[1]", "result": "do not induce the cholestasis"}]}, {"compound": "C[C@@H](N)[C@H]1CC[C@H](C(=O)Nc2ccncc2)CC1", "note": "[Y27632, Y-27632]", "values": [{"measurement": "effect of Rock inhibitor during the expansion of HB organoids", "setting": "hepatoblasts; added at cell inoculation", "result": "only maintains cell viability at day 0"}, {"measurement": "Ki67 expression level after removing the factor", "setting": "hepatoblasts", "result": "higher expression peak"}]}, {"compound": "COc1ccc2[nH]c([S+]([O-])Cc3ncc(C)c(OC)c3C)nc2c1", "note": "(centres unmarked) [omeprazole]", "values": [{"measurement": "drug metabolism levels (metabolic function of CYP3A4, CYP2C9 and CYP1A2)", "setting": "[3]", "result": "higher"}]}, {"compound": "hepatocyte growth factor [HGF]", "values": [{"measurement": "Ki67 expression level after removing the factor", "setting": "hepatoblasts", "result": "higher expression peak"}]}]}
